Measurements published in patent US9951035B2, “Selective matrix metalloproteinase inhibitors” (University of Notre Dame du Lac, priority 2014, dated 2018).
“Also recorded” adds a separate entry of the source. Where a name gives a salt, the structure may show the parent alone. Read-outs that look alike come from different tables or passages of the source.

Experiments:
MMP-2 = MMP-2 (Homo sapiens (Human), UniProt P08253); assay: Enzyme inhibition studies, MMP-2; assay type: biochemical; conditions: slow-binding, Ki calculated from koff/kon
MMP-14 = MMP-14 (Homo sapiens (Human), UniProt P50281); assay: Enzyme inhibition studies, MMP-14 catalytic domain; assay type: biochemical
MMP-1 = MMP-1 (Homo sapiens (Human), UniProt P03956); assay: Enzyme inhibition studies, MMP-1 catalytic domain; assay type: biochemical; conditions: at 100 μM; listed as ND-336, HCl salt
MMP-3 = MMP-3 (Homo sapiens (Human), UniProt P08254); assay: Enzyme inhibition studies, MMP-3 catalytic domain; assay type: biochemical; conditions: at 100 μM; listed as ND-336, HCl salt
MMP-7 = MMP-7 (Homo sapiens (Human), UniProt P09237); assay: Enzyme inhibition studies, MMP-7; assay type: biochemical; conditions: at 100 μM; listed as ND-336, HCl salt
ADAM9 = ADAM9 (Homo sapiens (Human), UniProt Q13443); assay: Enzyme inhibition studies, ADAM9; assay type: biochemical; conditions: at 100 μM; listed as ND-336, HCl salt
ADAM10 = ADAM10 (Homo sapiens (Human), UniProt O14672); assay: Enzyme inhibition studies, ADAM10; assay type: biochemical; conditions: at 100 μM; listed as ND-336, HCl salt
diabetic (db/db) mice = assay: Mouse diabetic wound model; assay type: in vivo; conditions: compared with ND-322; in words
From the text: The excisional mouse diabetic model validated by Sullivan et al. was used (Sullivan et al., Plast. Reconstr. Surg. (2004) 113, 953-960). The procedure for inflicting the wounds (single 8 mm wound on the dorsal region) was the same as described previously (Gooyit et al., ACS Chem. Biol. (2014) 9, 505-510). Wounds were photographed and covered with a sterile 3M Tegaderm™ transparent dressing (Butler Schein Animal Health, Inc.).
Female diabetic db/db (BKS.Cg-Dock7m+/+Leprdb/J, 8-weeks old, 38±3 g, n=24) were used for this study. Wounds were inflicted as described. Treatment with the MMP-2 inhibitor (50 μL of 5.0 mg/mL in 80% propylene glycol/20% DMSO, equivalent to 0.25 mg per wound) or vehicle (50 μL of 80% propylene glycol/20% DMSO) was started one day after wound infliction and continued once a day for 14 days. Digital photographs of wounds were taken on days 0, 7, 10, and 14 while the animals were under isoflurane anesthesia. On day 14, all mice were sacrificed. The wounds were excised, embedded in optimal cutting temperature (OCT) compound, and cryosectioned for histological evaluation.
Female diabetic db/db (BKS.Cg-Dock7m+/+Leprdb/J, 8-weeks old, 38±3 g, n=24) were used for this study. Wounds were inflicted and the following day the wounds were treated topically with MMP-8 (50 μL of 20 μg/mL MMP-8 in reaction buffer) or vehicle (50 μL reaction buffer) once a day for 14 days. The reaction buffer consisted of 50 mM Tris (pH 7.5), 10 mM CaCl2, 150 mM NaCl, and 0.05% (w/v) Brij-35. Digital photographs of the wounds were taken on days 0, 7, 10, and 14 while animals were under isoflurane anesthesia. On days 7 and 14, 12 mice (n=6 per group) were sacrificed. The wounds were excised, embedded in OCT compound, and cryosectioned for histological evaluation.
Photographs were taken using the procedure described by Gooyit et al. (ACS Chem Biol. (2014) 9, 505-510) at a fixed distance above the wounds and calibrated using a ruler included in the photographic frame. Image J 1.48c software was used to calculate wound areas. The percentage of wound closure was calculated from the wound area on the specified day relative to that on day 0.
Fresh wound tissue was harvested and embedded in OCT compound. Subsequently, the tissue was cryosectioned for H&E staining (12-μm thickness) and for apoptosis assays and in-situ zymography (8-μm thickness). Re-epithelialization was assessed on a Nikon Eclipse 90i Fluorescent Microscope (Nikon Instruments Inc.) as described earlier (Tkalcevic et al., Toxicol. Pathol. (2009) 37, 183-192). Apoptosis was evaluated using Derma TACS™ Apoptosis detection kits (Trevigen, Inc.) according to the manufacturer's instructions. The protocol of in-situ zymography was adapted from known methods. Gelatinolytic activity was detected in unfixed cryostat sections using DQ-gelatin as a substrate. DQ-gelatin was prepared at a concentration of 20 μg/mL in Tris-buffered saline (TBS) buffer (50 mM TBS pH 7.6, 1 mM CaCl2). A general MMP inhibitor in 0.5 mM EDTA was prepared as a negative control. Cryostat sections were air-dried for 10 min and incubated in the substrate mixture in the presence and absence of EDTA for 1 hr at room temperature. After the incubation period, the slides were washed in PBS (three times, 5 min each), fixed with 4% paraformaldehyde in PBS for 10 min in the dark, washed again with PBS (three times, 5 min each), incubated in the dark for 5 min with 300 nM DAPI solution, and mounted with anti-quenching mounting medium. Fluorescence of FITC was detected with excitation at 460-500 nm and emission at 512-542 nm. DAPI was detected with excitation at 340-380 nm and emission at 425-∞ nm.
Data are expressed as mean±SD. Wound healing between the groups in the studies were analyzed for statistical significance using a paired Student t-test, where p<0.05 was considered statistically significant.

MMP-9 = MMP-9 (Homo sapiens (Human), UniProt P14780); assay: Gel experiment, cleavage of tau by MMP-9; assay type: biochemical; conditions: in words
[1] = Pharmacokinetics and brain distribution after single iv dose
Description: Mice (male CD-1, 6-7 weeks old, ˜30 g body weight, specific pathogen free) were purchased from Charles River Laboratories, Inc. (Wilmington, Mass., USA).
Samples were analyzed by ultraperformance liquid chromatography (UPLC)/(+)electrospray ionization (ESI)-multiple-reaction monitoring (MRM) with a reversed phase C18 column (Acclaim® RSLC 120 C18, 2.2 μm, 120 Å, 2.1×100 mm, Dionex, Sunnyvale, Calif., USA).
Quantification of the compounds in plasma and brain was obtained using peak-area ratios of the compounds to the internal standard, and the linear-regression parameters obtained from the calibration curves.

[2] = Water solubility (filtrate of saturated aqueous solution, UPLC-MRM)
[3] = male, CD-1, mouse, in vivo, 5 mg/kg
[4] = male, CD-1, mouse, in vivo, iv, 5 mg/kg
[5] = plasma, 5 mg/kg single iv, mice

MMP-2, sequence (P08253 110-660): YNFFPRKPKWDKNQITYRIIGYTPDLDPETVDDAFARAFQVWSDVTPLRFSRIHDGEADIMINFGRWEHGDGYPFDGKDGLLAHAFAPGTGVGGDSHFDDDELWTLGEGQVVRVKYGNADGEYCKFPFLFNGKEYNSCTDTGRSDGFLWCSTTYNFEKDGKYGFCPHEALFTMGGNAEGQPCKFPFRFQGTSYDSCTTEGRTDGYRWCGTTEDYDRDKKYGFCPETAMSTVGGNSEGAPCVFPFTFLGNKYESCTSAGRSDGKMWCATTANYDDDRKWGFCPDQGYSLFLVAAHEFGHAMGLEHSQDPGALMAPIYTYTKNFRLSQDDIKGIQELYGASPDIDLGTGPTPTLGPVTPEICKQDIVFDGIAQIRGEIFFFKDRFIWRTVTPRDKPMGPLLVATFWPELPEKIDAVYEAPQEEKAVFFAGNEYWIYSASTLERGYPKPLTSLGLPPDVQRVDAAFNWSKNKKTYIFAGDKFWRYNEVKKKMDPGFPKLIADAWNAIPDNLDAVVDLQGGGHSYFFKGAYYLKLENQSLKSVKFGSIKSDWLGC
MMP-1, sequence (P03956 98-276): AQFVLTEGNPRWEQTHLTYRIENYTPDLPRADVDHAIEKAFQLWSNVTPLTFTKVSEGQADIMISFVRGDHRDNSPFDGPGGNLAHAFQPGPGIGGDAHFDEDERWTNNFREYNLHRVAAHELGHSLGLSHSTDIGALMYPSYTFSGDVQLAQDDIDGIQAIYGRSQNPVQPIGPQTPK
MMP-9, sequence (P14780 94-707, species assumed): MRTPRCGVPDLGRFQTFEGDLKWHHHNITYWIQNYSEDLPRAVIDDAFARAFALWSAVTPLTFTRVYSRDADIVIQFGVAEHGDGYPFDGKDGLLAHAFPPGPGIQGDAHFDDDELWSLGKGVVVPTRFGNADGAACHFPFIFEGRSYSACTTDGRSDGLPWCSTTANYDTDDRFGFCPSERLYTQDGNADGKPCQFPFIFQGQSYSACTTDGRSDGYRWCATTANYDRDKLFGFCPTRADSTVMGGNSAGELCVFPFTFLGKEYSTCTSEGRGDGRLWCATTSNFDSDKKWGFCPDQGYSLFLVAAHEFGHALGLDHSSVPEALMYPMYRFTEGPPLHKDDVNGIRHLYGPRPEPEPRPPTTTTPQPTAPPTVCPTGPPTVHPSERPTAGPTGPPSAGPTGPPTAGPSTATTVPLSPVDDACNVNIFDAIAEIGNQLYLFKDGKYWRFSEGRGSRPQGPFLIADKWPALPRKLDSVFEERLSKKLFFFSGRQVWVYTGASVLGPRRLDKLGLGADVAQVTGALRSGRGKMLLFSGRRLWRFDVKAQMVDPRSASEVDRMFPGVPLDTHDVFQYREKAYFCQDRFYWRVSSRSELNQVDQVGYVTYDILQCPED
MMP-7, sequence (P09237 95-267): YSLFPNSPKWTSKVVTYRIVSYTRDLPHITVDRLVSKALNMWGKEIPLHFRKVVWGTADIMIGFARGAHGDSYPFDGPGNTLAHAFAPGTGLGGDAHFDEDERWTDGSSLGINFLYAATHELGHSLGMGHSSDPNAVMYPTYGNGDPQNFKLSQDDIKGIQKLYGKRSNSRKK
ADAM10, sequence (O14672 214-672): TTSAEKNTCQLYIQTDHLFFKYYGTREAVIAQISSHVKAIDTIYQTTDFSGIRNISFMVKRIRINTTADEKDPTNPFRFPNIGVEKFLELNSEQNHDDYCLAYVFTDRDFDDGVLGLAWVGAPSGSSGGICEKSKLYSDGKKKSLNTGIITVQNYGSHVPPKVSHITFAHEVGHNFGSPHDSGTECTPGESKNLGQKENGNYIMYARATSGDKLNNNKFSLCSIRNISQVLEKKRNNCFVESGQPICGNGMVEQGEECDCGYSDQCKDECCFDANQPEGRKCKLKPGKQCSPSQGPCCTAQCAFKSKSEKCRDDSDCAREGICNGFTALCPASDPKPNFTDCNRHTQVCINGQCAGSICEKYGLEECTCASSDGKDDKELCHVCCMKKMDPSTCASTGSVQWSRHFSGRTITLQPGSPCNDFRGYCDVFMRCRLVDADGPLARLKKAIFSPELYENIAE
ADAM9, sequence (Q13443 206-697): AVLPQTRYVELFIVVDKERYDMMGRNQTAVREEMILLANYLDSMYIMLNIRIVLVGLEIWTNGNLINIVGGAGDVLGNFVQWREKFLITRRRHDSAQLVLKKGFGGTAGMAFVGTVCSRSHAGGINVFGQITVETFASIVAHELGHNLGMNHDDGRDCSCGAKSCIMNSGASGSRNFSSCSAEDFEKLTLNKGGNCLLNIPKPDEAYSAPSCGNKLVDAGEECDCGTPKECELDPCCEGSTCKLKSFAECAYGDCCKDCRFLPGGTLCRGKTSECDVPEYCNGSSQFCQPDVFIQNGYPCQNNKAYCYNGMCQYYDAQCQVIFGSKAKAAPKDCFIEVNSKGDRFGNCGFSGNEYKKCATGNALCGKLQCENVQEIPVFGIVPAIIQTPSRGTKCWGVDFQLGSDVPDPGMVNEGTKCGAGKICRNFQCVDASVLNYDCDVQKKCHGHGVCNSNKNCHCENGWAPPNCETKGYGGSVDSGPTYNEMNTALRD
MMP-3, sequence (P08254 100-272): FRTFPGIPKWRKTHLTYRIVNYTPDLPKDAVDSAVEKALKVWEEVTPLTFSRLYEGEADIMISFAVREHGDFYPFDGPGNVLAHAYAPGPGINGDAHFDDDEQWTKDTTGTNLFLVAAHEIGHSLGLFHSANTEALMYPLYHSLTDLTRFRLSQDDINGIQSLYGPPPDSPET

With `NCc1ccc(Oc2ccc(S(=O)(=O)CC3CS3)cc2)cc1` (stereo not shown) [Compound 5, (4-(4-((Thiiran-2-ylmethyl)sulfonyl)phenoxy)phenyl)methanamine HCl salt] the Ki (MMP-2; Ki) was 85 ± 1 nM, the Ki (MMP-2) was 85 nM and the Ki (MMP-14) was 120 ± 10 nM. For the same compound, the Ki (MMP-14; catalytic domain, slow-binding, Ki from koff/kon) was 120 nM, the Inhibition (MMP-1) was “Ki (MMP-1) 4% inhibition at 100 μM” and the Inhibition (MMP-3) was “Ki (MMP-3) 23% inhibition at 100 μM”. For the same compound, the Inhibition (MMP-7) was “Ki (MMP-7) 1% inhibition at 100 μM”, the Inhibition (ADAM9) was “Ki (ADAM-9) 31% inhibition at 100 μM” and the Inhibition (ADAM10) was “Ki (ADAM-10) 14% inhibition at 100 μM”. The “efficacy in mouse model of diabetic wound healing” value (diabetic (db/db) mice) was “significantly better efficacy than ND-322”, the “cleavage of tau in the presence of MMP-9” value (MMP-9) was “prevents cleavage of tau” and the “time brain levels above Ki for MMP-2” value ([1]; 5 mg/kg single iv, mice) was “at least 30 min”. For the same compound, the “time brain levels above Ki for MMP-9” value ([1]; 5 mg/kg single iv, mice) was “at least 30 min”, the “time plasma levels above Ki for MMP-2” value ([1]; 5 mg/kg single iv, mice) was “at least 30 min” and the “time plasma levels above Ki for MMP-9” value ([1]; 5 mg/kg single iv, mice) was “at least 30 min”. It also gave a Brain concentration ([1]; 2 min after 5 mg/kg single iv, mice) of 5.55 ± 2.38 pmol/mg tissue, a Brain concentration ([1]; 5 min after 5 mg/kg single iv, mice) of 2.97 ± 2.41 pmol/mg tissue and a Brain concentration ([1]; 10 min after 5 mg/kg single iv, mice) of 1.20 ± 0.50 pmol/mg tissue. It also gave a Brain concentration ([1]; 30 min after 5 mg/kg single iv, mice) of 0.213 ± 0.143 pmol/mg tissue, a Brain concentration ([1]; 60 min after 5 mg/kg single iv, mice) of 0.0368 ± 0.0232 pmol/mg tissue and a Brain concentration ([1]; 90 min after 5 mg/kg single iv, mice) of 0.0213 ± 0.0106 pmol/mg tissue. For the same compound, the Brain concentration ([1]; 120 min after 5 mg/kg single iv, mice) was 0.0158 ± 0.0125 pmol/mg tissue, the Brain concentration ([1]; 240 min after 5 mg/kg single iv, mice) was 0.00531 ± 0.00402 pmol/mg tissue and the AUC0-last ([1]; brain, 5 mg/kg single iv, mice) was 57.7 pmol·min/mg. For the same compound, the “AUC0-∞” value ([1]; brain, 5 mg/kg single iv, mice) was 58.3 pmol·min/mg, the t1/2α ([1]; brain, 5 mg/kg single iv, mice) was 3.32 min and the t1/2β ([1]; brain, 5 mg/kg single iv, mice) was 75.3 min. For the same compound, the “crossing of the blood-brain barrier” value ([1]; in words, listed as ND-336, HCl salt) was “cross the blood-brain barrier; also recorded: crosses the BBB”, the concentration at 2 min [1, 3] was 4350 ± 1100 nM and the concentration at 5 min [1, 3] was 3150 ± 1490 nM. The concentration at 10 min [1, 3] was 2390 ± 820 nM, the concentration at 30 min [1, 3] was 377 ± 116 nM and the concentration at 60 min [1, 3] was 57.4 ± 31.6 nM. The concentration at 90 min [1, 3] was 33.2 ± 6.5 nM, the concentration at 120 min [1, 3] was 21.8 ± 5.4 nM and the concentration at 240 min [1, 3] was 6.94 ± 6.06 nM. For the same compound, the AUC(0-inf) [1, 4] was 1.23 µM·h, the AUC(0-t) [1, 4] was 1.22 µM·h and the Kp [1, 4] was 0.793. For the same compound, the Vd [1, 4] was 2.76 L/kg, the clearance [1, 4] was 202 mL/min/kg and the AUC0-last [1, 5] was 72.9 µM·min. For the same compound, the “AUC0-∞” value [1, 5] was 73.6 µM·min, the CL [1, 5] was 202 mL/min/kg and the t1/2α [1, 5] was 6.47 min. The t1/2β [1, 5] was 68.0 min, the Aq. solubility ([2]; HCl salt) was 4900 µg/mL and the Aq. solubility ([2]; listed as ND-336, HCl salt) was “Water Solubility 4.9 mg/mL”. It also gave a solubility ([2]; thermodynamic from solid) of 4900 µg/mL.
